Measurements: patent US8802597B2, “Herbicidal pyrimidines” (E I du Pont de Nemours and Company, priority 2003, dated 2014)

How the values were obtained:
Type in all cases: in vivo
[1] = test system: giant foxtail (Setaria faberi); assay: Test A pre/postemergence
How it was run: (§1)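 Pre/post greenhouse screen; loam/sand soil; solvent + surfactant formulation; pre = directed soil spray at planting, post = 1–2 leaf plants, 2–10 cm; ~10 d; visual 0–100 rating vs untreated.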

[2] = test system: crabgrass (Digitaria sanguinalis); assay: Test A pre/postemergence
How it was run: as §1

[3] = test system: morningglory (Ipomoea spp.); assay: Test A pre/postemergence
How it was run: as §1

[4] = test system: barnyardgrass (Echinochloa crus-galli); assay: Test A pre/postemergence
How it was run: as §1

[5] = test system: redroot pigweed (Amaranthus retroflexus); assay: Test A pre/postemergence
How it was run: as §1

[6] = test system: velvetleaf (Abutilon theophrasti); assay: Test A pre/postemergence
How it was run: as §1

[7] = test system: barnyardgrass (Echinochloa crus-galli); assay: Test B flooded paddy test; settings: Flood, scale 0 to 100
Procedure: (§2) At the same time, plants selected from these crop and weed species and also blackgrass (Alopecurus myosuroides) and wild oat (Avena fatua) were treated with postemergence applications of test chemicals formulated in the same manner. Plants ranged in height from 2 to 18 cm (1- to 4-leaf stage) for postemergence treatments. Plant species in the flooded paddy test consisted of rice (Oryza sativa), umbrella sedge (Cyperus difformis), duck salad (Heteranthera limosa) and barnyardgrass (Echinochloa crus-galli) grown to the 2-leaf stage for testing. Treated plants and controls were maintained in a greenhouse for 13 to 15 days, after which time all species were compared to controls and visually evaluated. Plant response ratings, summarized in Table B, are based on a scale of 0 to 100 where 0 is no effect and 100 is complete control. A dash (-) response means no test result.

[8] = test system: duck salad (Heteranthera limosa); assay: Test B flooded paddy test; settings: Flood, scale 0 to 100
Procedure: as §2

[9] = test system: umbrella sedge (Cyperus difformis); assay: Test B flooded paddy test; settings: Flood, scale 0 to 100
Procedure: as §2

rice (Oryza sativa) = assay: Test B flooded paddy test; settings: Flood, scale 0 to 100
Procedure: as §2

[10] = Postemergence, 125 g ai/ha, 0 to 100 scale (0 no effect, 100 complete control)
[11] = Postemergence, 500 g ai/ha, 0 to 100 scale (0 no effect, 100 complete control)
[12] = Preemergence, 125 g ai/ha, 0 to 100 scale where 0 is no effect and 100 is complete control, approximately ten days
[13] = Preemergence, 500 g ai/ha, 0 to 100 scale where 0 is no effect and 100 is complete control, approximately ten days

CCOC(=O)c1nc(-c2ccc(C(F)(F)F)cc2)nc(N)c1Br [Compound 60]
40: Plant response rating, Pigweed [5, 11] | Plant response rating, Velvetleaf [6, 11]
80: Plant response rating, Ducksalad ([8]; 125 g ai/ha)
10: Plant response rating, Pigweed [5, 10]
0: Plant response rating, Foxtail, Giant [1, 10] | Plant response rating, Foxtail, Giant [1, 11] | Plant response rating, Foxtail, Giant [1, 12] | Plant response rating, Foxtail, Giant [1, 13] | Plant response rating, Crabgrass [2, 10] | Plant response rating, Crabgrass [2, 11] | Plant response rating, Crabgrass [2, 12] | Plant response rating, Crabgrass [2, 13] | Plant response rating, Morningglory [3, 10] | Plant response rating, Morningglory [3, 12] | Plant response rating, Morningglory [3, 13] | Plant response rating, Barnyardgrass [4, 10] | Plant response rating, Barnyardgrass [4, 11] | Plant response rating, Barnyardgrass [4, 12] | Plant response rating, Barnyardgrass [4, 13] | Plant response rating, Pigweed [5, 12] | Plant response rating, Pigweed [5, 13] | Plant response rating, Velvetleaf [6, 12] | Plant response rating, Velvetleaf [6, 13] | Plant response rating, Barnyardgrass ([7]; 125 g ai/ha) | Plant response rating, Sedge, Umbrella ([9]; 125 g ai/ha) | Plant response rating, Rice (rice (Oryza sativa); 125 g ai/ha) | Plant response rating, Rice (rice (Oryza sativa); 500 g ai/ha)
90: Plant response rating, Ducksalad ([8]; 500 g ai/ha)
20: Plant response rating, Morningglory [3, 11] | Plant response rating, Barnyardgrass ([7]; 500 g ai/ha)
30: Plant response rating, Velvetleaf [6, 10] | Plant response rating, Sedge, Umbrella ([9]; 500 g ai/ha)
